US7666890B2, “Synthesis and herbicidal activity of 1- (2-substituted benzo[d]thiazol-5-yl)-1H-1,2,4-triazol-5(4H)-one derivatives” (Huazhong Normal University, priority 2007, dated 2010)

Columns and labels:
Assay in all cases: Test of herbicidal activities (greenhouse pot method)
Assay type in all cases: in vivo
Conditions in all cases: single dose 300 g ai./h, treated before/after germination, 15 days later, greenhouse pot
[1] = tested on: Amaranthus retroflexus
Procedure: (§1) Garden soil was collected from regions where no pesticide is used and mixed uniformly with mountain soil and organic humus soil at a volume ratio of 1:1:1.
(§2) Multiple flowerpots each having a diameter of 9.5 cm and a depth of 8 cm were filled with the soil mixture to 3/4 volume. After water was added to the soil and the soil was completely wet, seeds of three grass weeds and three broadleaf weeds were inserted into the flowerpots (10-15 seeds for each weed). After seeding, the seeds were covered with fine oil mixed with sand and having a thickness of 1-3 cm. After the soil absorbed enough water and became saturated, excess water at the bottom of the flowerpot was drained, and the seeds were placed in a greenhouse for growth.
(§3) The weeds were watered every day so as to keep relative humidity of the soil at approximately 80%, growing temperature of 15-30° C., and air humidity above 50%. As the grass weeds grew to a 2-leaf stage and the broadleaf weeds was in a leaf period, spraying operation […] was performed on the stems and leafs. Planting before germination was performed before spraying. Soil processing was performed before the seeds of the weeds emerged.
(§4) Six target weeds comprising three grass weeds: Echinochloa crusgalli, Digiatria sanguinalis, Setaria viridis, along with three broadleaf weeds: Brassica juncea, Amaranthus retroflexus, Chenopodium album were treated before/after germination using a so-called “greenhouse pot” method with a single dose. A treating dose was 300 g ai./h. The process was repeated three times, and a blank control was used.
(§5) A 3WPSHZ-500 type automatic spraying tower with a spraying area of 0.132 m^2, a spray volume of 10 mL, working pressure of 0.2 MPa, and a liquid volume of 40% of maximum was used. After treatment, the weeds were placed in a greenhouse at a temperature of 15-30° C. Reaction symptoms of the weeds were regularly observed, and 15 days later, five reaction levels were determined according to the following inhibition intervals: 90≦A≦100%; 80≦B<90%, 60≦C<80%; 50≦D<60%, E<50%.

[2] = tested on: Brassica juncea
Procedure: as §1, §2, §3, §4, §5

[3] = tested on: Chenopodium album
Procedure: as §1, §2, §3, §4, §5

[4] = tested on: Digiatria sanguinalis
Procedure: as §1, §2, §3, §4, §5

[5] = tested on: Echinochloa crusgalli
Procedure: as §1, §2, §3, §4, §5

[6] = tested on: Setaria viridis
Procedure: as §1, §2, §3, §4, §5

Structure (SMILES)	Herbicidal activity Amaranthus retroflexus (inhibition level) [1]	Herbicidal activity Brassica juncea (inhibition level) [2]	Herbicidal activity Chenopodium album (inhibition level) [3]	Herbicidal activity Digiatria sanguinalis (inhibition level) [4]	Herbicidal activity Echinochloa crusgalli (inhibition level) [5]	Herbicidal activity Setaria viridis (inhibition level) [6]
Cc1nn(-c2cc3nc(SCc4ccc(F)cc4)sc3cc2F)c(=O)n1C(F)F [Compound 20]	A (90 ≦ A ≦ 100%)	B (80 ≦ B < 90%)	B (80 ≦ B < 90%)	C (60 ≦ C < 80%)	C (60 ≦ C < 80%)	B (80 ≦ B < 90%)
Cc1nn(-c2cc3nc(SCc4cccc(Br)c4)sc3cc2F)c(=O)n1C(F)F [Compound 21]	A (90 ≦ A ≦ 100%)	B (80 ≦ B < 90%)	B (80 ≦ B < 90%)	B (80 ≦ B < 90%)	C (60 ≦ C < 80%)	E (E < 50%)
Cc1nn(-c2cc3nc(SCc4ccc(Br)cc4F)sc3cc2F)c(=O)n1C(F)F [Compound 22]	B (80 ≦ B < 90%)	D (50 ≦ D < 60%)	D (50 ≦ D < 60%)	C (60 ≦ C < 80%)	C (60 ≦ C < 80%)	C (60 ≦ C < 80%)
Cc1nn(-c2cc3nc(SCc4cccc(Cl)c4)sc3cc2F)c(=O)n1C(F)F [Compound 23]	A (90 ≦ A ≦ 100%)	E (E < 50%)	D (50 ≦ D < 60%)	C (60 ≦ C < 80%)	C (60 ≦ C < 80%)	D (50 ≦ D < 60%)
Cc1nn(-c2cc3nc(SCc4ccccc4Cl)sc3cc2F)c(=O)n1C(F)F [Compound 24]	A (90 ≦ A ≦ 100%)	C (60 ≦ C < 80%)	B (80 ≦ B < 90%)	B (80 ≦ B < 90%)	C (60 ≦ C < 80%)	D (50 ≦ D < 60%)
Cc1nn(-c2cc3nc(SCc4ccc(Cl)cc4)sc3cc2Br)c(=O)n1C(F)F [Compound 25]	E (E < 50%)	C (60 ≦ C < 80%)	E (E < 50%)	C (60 ≦ C < 80%)	D (50 ≦ D < 60%)	B (80 ≦ B < 90%)
Cc1nn(-c2cc3nc(SCc4ccc(Br)cc4)sc3cc2Br)c(=O)n1C(F)F [Compound 26]	B (80 ≦ B < 90%)	B (80 ≦ B < 90%)	A (90 ≦ A ≦ 100%)	C (60 ≦ C < 80%)	D (50 ≦ D < 60%)	C (60 ≦ C < 80%)
Cc1nn(-c2cc3nc(SCc4ccc(F)cc4)sc3cc2Br)c(=O)n1C(F)F [Compound 27]	D (50 ≦ D < 60%)	A (90 ≦ A ≦ 100%)	C (60 ≦ C < 80%)	D (50 ≦ D < 60%)	B (80 ≦ B < 90%)	B (80 ≦ B < 90%)
Cc1nn(-c2cc3nc(SCc4coc5ccccc5c4=O)sc3cc2Br)c(=O)n1C(F)F [Compound 28]	C (60 ≦ C < 80%)	A (90 ≦ A ≦ 100%)	C (60 ≦ C < 80%)	B (80 ≦ B < 90%)	B (80 ≦ B < 90%)	D (50 ≦ D < 60%)
